Measurements reported in patent publication US20060073188A1, “Fast-dissolving isotropic expanded microporous composition or structure for pharmaceutical, veterinary, dietetic, food or cosmetic use and method for obtaining same” (PIERRE FABRE MEDICAMENT, priority 1999, published 2006).

Test: physchem

| solubility [µg/mL] | SMILES |
| --- | --- |
| < 100 | O=c1[nH]c2ccccc2n1CCCN1CCC(n2c(=O)[nH]c3cc(Cl)ccc32)CC1 [domperidone] |
| < 100 | CN1C(C(=O)Nc2ccccn2)=C(O)c2ccccc2S1(=O)=O [piroxicam] |
